Experimental data: article PMC10533593 (Molecular Neurobiology, 2023)
Blank lines part the entries; values can stand above or below the compound they belong to.

Assays:
D4.4R = biological target: T1, D4.4R (Homo sapiens, UniProt P21917); type: cell-based; settings: antagonist 1 μM, added 10 min before dopamine; D4.4R alone
T1 construct: gene DRD4; non-fused full-length human D4.4R in pcDNA3.1, transiently expressed in HEK-293T without alpha1AR; Galphai1-Rluc, Ggamma2-YFP and Gbeta1 reporters co-transfected
T1 sequence (P21917 1-419): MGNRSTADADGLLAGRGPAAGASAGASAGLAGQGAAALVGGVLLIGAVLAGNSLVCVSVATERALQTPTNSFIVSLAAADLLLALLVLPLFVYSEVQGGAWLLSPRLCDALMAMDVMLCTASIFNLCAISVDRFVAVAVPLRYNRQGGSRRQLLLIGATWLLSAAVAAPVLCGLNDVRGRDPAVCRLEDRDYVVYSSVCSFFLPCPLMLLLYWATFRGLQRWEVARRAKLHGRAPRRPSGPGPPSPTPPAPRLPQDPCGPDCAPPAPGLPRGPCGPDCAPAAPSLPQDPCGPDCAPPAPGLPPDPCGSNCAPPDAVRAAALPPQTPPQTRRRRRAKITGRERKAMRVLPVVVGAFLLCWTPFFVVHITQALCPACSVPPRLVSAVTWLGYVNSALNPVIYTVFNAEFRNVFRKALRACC

α1AR [1] = biological target: T2, α1AR (Homo sapiens, UniProt P35348); experiment: BRET Gq and Gs activation in HEK-293T; type: cell-based; settings: agonist; alpha1AR alone; 10 μM dopamine; intact cells
T2 construct: gene ADRA1A; non-fused full-length human alpha1AR in pcDNA3.1, transiently expressed in HEK-293T without D4R; Galphaq-Rluc or Galphas-Rluc, Ggamma2-YFP and Gbeta1 reporters co-transfected
T2 sequence (P35348 1-466): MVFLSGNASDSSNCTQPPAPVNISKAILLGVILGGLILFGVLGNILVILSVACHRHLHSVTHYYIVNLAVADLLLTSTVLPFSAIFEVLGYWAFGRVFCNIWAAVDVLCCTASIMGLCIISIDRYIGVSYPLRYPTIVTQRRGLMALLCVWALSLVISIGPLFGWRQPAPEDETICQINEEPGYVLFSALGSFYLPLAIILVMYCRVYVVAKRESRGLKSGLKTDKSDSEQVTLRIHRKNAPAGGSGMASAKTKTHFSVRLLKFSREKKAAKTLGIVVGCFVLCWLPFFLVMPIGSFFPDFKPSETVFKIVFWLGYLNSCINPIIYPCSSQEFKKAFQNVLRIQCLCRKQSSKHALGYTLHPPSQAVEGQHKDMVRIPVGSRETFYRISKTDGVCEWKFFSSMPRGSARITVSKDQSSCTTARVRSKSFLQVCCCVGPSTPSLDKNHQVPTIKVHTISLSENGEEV

α1AR [2] = biological target: T2, α1AR; type: cell-based; settings: antagonist 1 μM, added 10 min before A61603; alpha1AR alone
[3] = biological target: T3, α1AR-D4.4R (D4.4R read-out) (Homo sapiens, UniProt P21917); experiment: BRET beta-arrestin-2-Rluc recruitment to alpha1AR-YFP in HEK-293T; type: cell-based
T3 construct: gene DRD4; D4.4R (non-fused) co-expressed with alpha1AR in HEK-293T; alpha1AR non-fused in Gi assay, alpha1AR-YFP in beta-arrestin-2 assay; with Alpha-1A adrenergic receptor
T3 sequence (P21917 1-419): T1 sequence (P21917 1-419)
T3 sequence (P35348 1-466 partner): T2 sequence (P35348 1-466)
Excerpt: BRET beta-arrestin-2-Rluc recruitment to alpha1AR-YFP in HEK-293T on α1AR-D4.4R (D4.4R read-out)

[4] = biological target: human dopamine D4 receptor, polymorphic variant D4.4R, fused to Rluc (human) (UniProt P21917); experiment: FRET or BRET; BRET saturation in intact HEK-293T cells: constant amount of cDNA of the Rluc-fused receptor, increasing amounts of cDNA of the YFP-fused receptor; coelenterazine H 5 μM; HBSS with 0.1% glucose; single-phase saturation fit
[5] = biological target: human α1A adrenoreceptor fused to Rluc (human) (UniProt P35348); experiment: as above

Compound: Clc1ccc(N2CCN(Cc3c[nH]c4ncccc34)CC2)cc1 [L745870]
BRET Gi1 activation in HEK-293T, antagonism of dopamine (D4.4R): the selective D4R antagonist L745870, but not the α1AR antagonist prazosin, antagonized the effect of dopamine

Compound: COc1cc2nc(N3CCN(C(=O)c4ccco4)CC3)nc(N)c2cc1OC [prazosin]
BRET Gq and Gs activation in HEK-293T, antagonism of A61603 (α1AR [2]): the effect of A61603 was counteracted by prazosin

Compound: Cc1cccc(NC(=O)CN2CCC(c3ccccn3)CC2)c1 [A412997]
EC50 [3]: 30 ± 19 nM

Further lines, results first:

% of norepinephrine effect at 10 μM (α1AR [1]): < 50%
Compound: NCCc1ccc(O)c(O)c1 [dopamine]

BRET50 [4]: 33
Compound: human α1A adrenoreceptor fused to YFP (from UniProt P35348 1-466)

BRET50 [5]: 25
Compound: human dopamine D4 receptor, polymorphic variant D4.7R, fused to YFP
